Values joined by “and” are separate entries in the source; they are usually repeats but may differ in a detail not shown here. Identical values can stand only once. Toxic doses and inconclusive results are not listed.
Test system: L1210 leukemia ip in BDF1 mice, survival T/C
Test: NCI In Vivo Anticancer Drug Screen. Data for tumor model L1210 Leukemia (intraperitoneal) in B6D2F1 (BDF1) mice
Settings: endpoint: mean survival time, higher = longer survival
Method in brief: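 Read-out is survival time, reported as the treated-group measurement over the vehicle-control measurement.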

[1] = dose: 100.0 mg/kg/injection, schedule: Q01DX001 (ip), vehicle: Klucel (hydroxypropylcellulose) (HPC)
[2] = dose: 200.0 mg/kg/injection, schedule: Q01DX001 (ip), vehicle: Klucel (hydroxypropylcellulose) (HPC)
[3] = dose: 100.0 mg/kg/injection, schedule: Q04DX003 (ip), vehicle: saline
[4] = dose: 200.0 mg/kg/injection, schedule: Q04DX003 (ip), vehicle: saline
[5] = dose: 400.0 mg/kg/injection, schedule: Q04DX003 (ip), vehicle: saline
[6] = dose: 100.0 mg/kg/injection, schedule: Q01DX009 (ip), vehicle: saline
[7] = dose: 100.0 mg/kg/injection, schedule: Q04DX003 (ip), vehicle: Klucel (hydroxypropylcellulose) (HPC)
[8] = dose: 200.0 mg/kg/injection, schedule: Q01DX009 (ip), vehicle: saline
[9] = dose: 200.0 mg/kg/injection, schedule: Q04DX003 (ip), vehicle: Klucel (hydroxypropylcellulose) (HPC)
[10] = dose: 100.0 mg/kg/injection, schedule: Q01DX009 (ip), vehicle: saline with Tween-80
[11] = dose: 200.0 mg/kg/injection, schedule: Q01DX009 (ip), vehicle: saline with Tween-80
[12] = dose: 400.0 mg/kg/injection, schedule: Q01DX009 (ip), vehicle: saline with Tween-80
[13] = dose: 100.0 mg/kg/injection, schedule: Q01DX009 (ip), vehicle: Klucel (hydroxypropylcellulose) (HPC)
[14] = dose: 200.0 mg/kg/injection, schedule: Q01DX009 (ip), vehicle: Klucel (hydroxypropylcellulose) (HPC)
[15] = dose: 400.0 mg/kg/injection, schedule: Q01DX009 (ip), vehicle: Klucel (hydroxypropylcellulose) (HPC)
[16] = dose: 400.0 mg/kg/injection, schedule: Q01DX009 (ip), vehicle: saline
[17] = dose: 75.0 mg/kg/injection, schedule: Q01DX001 (ip), vehicle: saline

## CCOC(=O)c1cc(C(=O)OCC)c[n+](CCCl)c1
dose: 8.0 mg/kg/injection, schedule: Q01DX010 (ip), vehicle: other
  T/C: 104 % of control
dose: 16.0 mg/kg/injection, schedule: Q01DX010 (ip), vehicle: other
  T/C: 104 % of control
dose: 32.0 mg/kg/injection, schedule: Q01DX010 (ip), vehicle: other
  T/C: 111 % of control
dose: 64.0 mg/kg/injection, schedule: Q01DX010 (ip), vehicle: other
  T/C: 109 % of control
dose: 64.0 mg/kg/injection, schedule: Q01DX Z (ip), vehicle: other
  T/C: 105 % of control

## Cc1cc(N(CCOS(C)(=O)=O)CCOS(C)(=O)=O)ccc1C=Nc1ccccc1C(=O)O
dose: 2.5 mg/kg/injection, schedule: Q04DX003 (ip), vehicle: Klucel (hydroxypropylcellulose) (HPC)
  T/C: 124 % of control
dose: 5.0 mg/kg/injection, schedule: Q04DX003 (ip), vehicle: Klucel (hydroxypropylcellulose) (HPC)
  T/C: 113 % of control
dose: 10.0 mg/kg/injection, schedule: Q04DX003 (ip), vehicle: Klucel (hydroxypropylcellulose) (HPC)
  T/C: 109 % of control
dose: 40.0 mg/kg/injection, schedule: Q04DX003 (ip), vehicle: Klucel (hydroxypropylcellulose) (HPC)
  T/C: 153 % of control

## O=C(O)c1ccc(I)cc1.[Ni]
dose: 25.0 mg/kg/injection, schedule: Q04DX002 (ip), vehicle: Klucel (hydroxypropylcellulose) (HPC)
  T/C: 100 % of control
dose: 50.0 mg/kg/injection, schedule: Q04DX002 (ip), vehicle: Klucel (hydroxypropylcellulose) (HPC)
  T/C: 100 % of control

## C[C@]12C=CC(=O)C=C1CC[C@@H]1[C@@H]2[C@@H](O)C[C@@]2(C)[C@H]1CC[C@]2(O)C(=O)COC(=O)CCC(=O)O
dose: 63.0 mg/kg/injection, schedule: Q01DX015 (sc), vehicle: steriod suspending solution
  T/C: 106 % of control
dose: 125.0 mg/kg/injection, schedule: Q01DX015 (sc), vehicle: steriod suspending solution
  T/C: 106 % of control
dose: 250.0 mg/kg/injection, schedule: Q01DX015 (sc), vehicle: steriod suspending solution
  T/C: 96 % of control
dose: 500.0 mg/kg/injection, schedule: Q01DX015 (sc), vehicle: steriod suspending solution
  T/C: 108 % of control and 116 % of control

## CC(=O)CCNC1(c2ccccc2)CCCCC1
[1]
  T/C: 95 % of control
[2]
  T/C: 95 % of control

## C=CC[n+]1ccccc1Br
dose: 62.0 mg/kg/injection, schedule: Q01DX015 (ip), vehicle: water
  T/C: 102 % of control
dose: 125.0 mg/kg/injection, schedule: Q01DX015 (ip), vehicle: water
  T/C: 106 % of control

## O=C(O)CCSCc1cc(=O)[nH]c(=O)[nH]1
[3]
  T/C: 96 % of control
[4]
  T/C: 98 % of control
[5]
  T/C: 96 % of control

## O=C(O)c1ccc([N+](=O)[O-])cc1C(=O)O
dose: 87.5 mg/kg/injection, schedule: Q01DX001 (ip), vehicle: saline
  T/C: 104 % of control
[6]
  T/C: 100 % of control
[7]
  T/C: 96 % of control
dose: 175.0 mg/kg/injection, schedule: Q01DX001 (ip), vehicle: saline
  T/C: 100 % of control
[8]
  T/C: 93 % of control
[9]
  T/C: 87 % of control
dose: 350.0 mg/kg/injection, schedule: Q01DX001 (ip), vehicle: saline
  T/C: 108 % of control

## Nc1cc(Nc2cccc(Cl)c2)nc(N)n1
dose: 100.0 mg/kg/injection, schedule: Q01DX001 (ip), vehicle: carboxymethylcellulose (CMC)
  T/C: 94 % of control

## COc1ccc2c(=O)c3ccccc3oc2c1
[3]
  T/C: 101 % of control
[4]
  T/C: 101 % of control
[5]
  T/C: 103 % of control

## CC(C)N(C(=O)Nc1cccc2ccccc12)c1ccccc1
dose: 100.0 mg/kg/injection, schedule: Q01DX009 (ip), vehicle: gum acacia
  T/C: 97 % of control
dose: 100.0 mg/kg/injection, schedule: Q04DX003 (ip), vehicle: gum acacia
  T/C: 110 % of control
dose: 200.0 mg/kg/injection, schedule: Q01DX009 (ip), vehicle: gum acacia
  T/C: 96 % of control
dose: 200.0 mg/kg/injection, schedule: Q04DX003 (ip), vehicle: gum acacia
  T/C: 102 % of control
dose: 400.0 mg/kg/injection, schedule: Q01DX009 (ip), vehicle: gum acacia
  T/C: 99 % of control
dose: 400.0 mg/kg/injection, schedule: Q04DX003 (ip), vehicle: gum acacia
  T/C: 104 % of control

## COCCCNc1ccc(S(=O)(=O)c2ccc(N)cc2)cc1
[10]
  T/C: 103 % of control
[11]
  T/C: 95 % of control
[12]
  T/C: 97 % of control

## CCCCCCCCOC(=O)CCC(N)C(=O)O (stereo not given)
[1]
  T/C: 107 % of control
[13]
  T/C: 93 % of control
[2]
  T/C: 102 % of control
[14]
  T/C: 97 % of control
dose: 400.0 mg/kg/injection, schedule: Q01DX001 (ip), vehicle: Klucel (hydroxypropylcellulose) (HPC)
  T/C: 98 % of control
[15]
  T/C: 97 % of control

## O=C(/C=C/c1cccc(Cl)c1)c1ccccc1
dose: 50.0 mg/kg/injection, schedule: Q04DX002 (ip), vehicle: saline with Tween-80
  T/C: 108 % of control
dose: 100.0 mg/kg/injection, schedule: Q04DX002 (ip), vehicle: saline with Tween-80
  T/C: 115 % of control
dose: 200.0 mg/kg/injection, schedule: Q04DX002 (ip), vehicle: saline with Tween-80
  T/C: 97 % of control

## Nc1ccnc(Br)c1
[6]
  T/C: 103 % of control
[3]
  T/C: 109 % of control
[8]
  T/C: 100 % of control
[4]
  T/C: 107 % of control
[16]
  T/C: 101 % of control
[5]
  T/C: 112 % of control

## CO[C@H]1/C=C/O[C@@]2(C)Oc3c(C)c(O)c4c(O)c(c(/C=N/N5CCNCC5)c(O)c4c3C2=O)NC(=O)/C(C)=C\C=C\[C@H](C)[C@H](O)[C@@H](C)[C@@H](O)[C@@H](C)C(OC(C)=O)[C@@H]1C (stereo not given in full)
dose: 25.0 mg/kg/injection, schedule: Q01DX001 (ip), vehicle: water
  T/C: 98 % of control
dose: 25.0 mg/kg/injection, schedule: Q01DX009 (ip), vehicle: Klucel (hydroxypropylcellulose) (HPC)
  T/C: 100 % of control
dose: 50.0 mg/kg/injection, schedule: Q01DX001 (ip), vehicle: water
  T/C: 102 % of control
dose: 50.0 mg/kg/injection, schedule: Q01DX009 (ip), vehicle: Klucel (hydroxypropylcellulose) (HPC)
  T/C: 94 % of control
dose: 100.0 mg/kg/injection, schedule: Q01DX001 (ip), vehicle: water
  T/C: 101 % of control
[13]
  T/C: 94 % of control
dose: 200.0 mg/kg/injection, schedule: Q01DX001 (ip), vehicle: water
  T/C: 106 % of control
[14]
  T/C: 100 % of control
dose: 400.0 mg/kg/injection, schedule: Q01DX001 (ip), vehicle: water
  T/C: 102 % of control

## c1ccc(C[P+](Cc2ccccc2)(c2ccccc2)c2ccccc2)cc1
[17]
  T/C: 94 % of control

## NCc1ccccn1
dose: 100.0 mg/kg/injection, schedule: Q01DX001 (ip), vehicle: saline
  T/C: 98 % of control
dose: 400.0 mg/kg/injection, schedule: Q01DX001 (ip), vehicle: saline
  T/C: 95 % of control

## N#Cc1cccc(OCCCCOc2ccccc2)c1
[13]
  T/C: 89 % of control
[14]
  T/C: 109 % of control
[15]
  T/C: 95 % of control

## CN1CCC(=C(C#N)C#N)CC1
[3]
  T/C: 91 % of control

## CC1(CC(O)(C(F)(F)F)C(F)(F)F)NC(=O)NC1=O (stereo not given)
[10]
  T/C: 97 % of control
dose: 100.0 mg/kg/injection, schedule: Q04DX003 (ip), vehicle: saline with Tween-80
  T/C: 93 % of control
[11]
  T/C: 99 % of control
dose: 200.0 mg/kg/injection, schedule: Q04DX003 (ip), vehicle: saline with Tween-80
  T/C: 96 % of control
[12]
  T/C: 99 % of control
dose: 400.0 mg/kg/injection, schedule: Q04DX003 (ip), vehicle: saline with Tween-80
  T/C: 91 % of control

## CC1C(C)N1P(I)(c1ccccc1)(c1ccccc1)c1ccccc1 (stereo not given)
dose: 2.5 mg/kg/injection, schedule: Q01DX001 (ip), vehicle: carboxymethylcellulose (CMC)
  T/C: 115 % of control

## COc1cc(CCN(C)C)cc(OC)c1OC
[17]
  T/C: 95 % of control
dose: 150.0 mg/kg/injection, schedule: Q01DX001 (ip), vehicle: saline
  T/C: 101 % of control
dose: 300.0 mg/kg/injection, schedule: Q01DX001 (ip), vehicle: saline
  T/C: 102 % of control

## Cc1c([N+](=O)[O-])c(C)c([N+](=O)[O-])c(C(C)(C)C)c1[N+](=O)[O-]
[13]
  T/C: 93 % of control
[7]
  T/C: 92 % of control
[14]
  T/C: 94 % of control
[9]
  T/C: 100 % of control
[15]
  T/C: 96 % of control
dose: 400.0 mg/kg/injection, schedule: Q04DX003 (ip), vehicle: Klucel (hydroxypropylcellulose) (HPC)
  T/C: 94 % of control

## Cc1ccc[n+](CCC(N)=O)c1
[6]
  T/C: 92 % of control
[3]
  T/C: 102 % of control
[8]
  T/C: 93 % of control
[4]
  T/C: 102 % of control
[16]
  T/C: 97 % of control
[5]
  T/C: 94 % of control
